Data from the NIST ThermoML archive (doi:10.1016/j.jct.2012.06.030).

Test: molar heat capacity at constant pressure; xn = mol fraction of the nth substance listed
Conditions: 101 kPa, Liquid, Small sample (50 mg) DSC, x2 = 0

O [water] + CCCCCC[n+]1ccc2ccccc2c1.N#C[S-]
Conditions | molar heat capacity at constant pressure [J/K/mol]
288.15 K | 75.9
293.15 K | 75.8
298.15 K | 75.7
303.15 K | 75.7
308.15 K | 75.6
313.15 K | 75.5
318.15 K | 75.5
323.15 K | 75.4
328.15 K | 75.4
333.15 K | 75.3
338.15 K | 75.3
343.15 K | 75.3
